Data on one compound can be found in US20080286387A1, “Standardized method for recovering enriched Indian date extract (IDE), properties of IDE and applications thereof” (priority 2007, published 2008).

This assay has as its system 5-alpha-reductases. The assay is described as follows: 5-alpha-reductase inhibition. Format: biochemical. The conditions noted are these: at a workable concentration of 9 μg/ml; FIG. 4.

The structures appear in SMILES notation. Bounds are passed on as bounds.

`CC(C)(C)NC(=O)[C@H]1CC[C@H]2[C@@H]3CC[C@H]4NC(=O)C=C[C@]4(C)[C@H]3CC[C@]12C` [Finasteride]: the “inhibition of 5-alpha-reductase” value is recorded as not above 13%.
